Reference: patent US9145351B2, “Azole derivatives, methods for producing the same, intermediate thereof, agro-horticultural agents” (KUREHA CORPORATION, priority 2009, dated 2015)
Like-named read-outs stand apart in the source and are kept apart here.

Legend:
Format in all cases: cell-based
Phaeosphaeria nodorum = experiment: Plate medium fungicidal assay, wheat Septoria nodorum blotch P.n (Experimental Example 5); conditions: for inhibition at 5 µg/mL / inhibition at 50 µg/mL: Parastagonospora nodorum
Procedure, shortened: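 Compound in DMSO mixed into PDA plate medium at 50 mg/L and 5 mg/L; 4 mm mycelial plug of pre-cultured fungus inoculated onto plate. Colony diameter compared with untreated plate, % mycelial growth inhibition = 100(dc−dt)/dc, scored in 5 grades.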

[1] = test system: Pseudocercoporella herpotrichoides; experiment: Plate medium fungicidal assay, wheat eye spot P.h (Experimental Example 5)
Procedure, shortened: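 Compound in DMSO mixed into PDA agar for plates at 50 mg/L and 5 mg/L, inoculated with a 4 mm mycelial plug of Pseudocercosporella herpotrichoides. Colony diameter compared with untreated plates: % mycelial growth inhibition = 100(dc−dt)/dc, scored on a 5-grade scale.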

Fusarium graminearum = experiment: microbe, parasite or virus in culture; conditions: for inhibition at 5 µg/mL / inhibition at 50 µg/mL: Fusarium graminearum
Pyricularia oryzae = experiment: microbe, parasite or virus in culture; conditions: for inhibition at 5 µg/mL / inhibition at 50 µg/mL: Pyricularia oryzae
Giberella fujikuroi = experiment: Plate medium fungicidal assay, rice bakanae disease G.f (Experimental Example 5)
Procedure, shortened: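 Gibberella fujikuroi mycelial plugs (4 mm) placed on PDA plates containing compound at 50 mg/L and 5 mg/L, added from DMSO solution. Colony diameter compared with untreated plates as % inhibition = 100(dc−dt)/dc, then scored in 5 grades.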

Fusarium oxysporum = experiment: Plate medium fungicidal assay, cucumber fusarium wilt F.c (Experimental Example 5); conditions: for inhibition at 5 µg/mL / inhibition at 50 µg/mL: Fusarium oxysporum
Procedure, shortened: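 Compound in DMSO mixed into PDA agar to give plates at 50 mg/L and 5 mg/L, then inoculated with 4 mm mycelial plug. Colony diameter compared with untreated plate as % mycelial growth inhibition, R=100(dc−dt)/dc, then scored on a 5-grade scale.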

Rhynchosporium secalis = experiment: Plate medium fungicidal assay, barley leaf blotch R.sec (Experimental Example 5); conditions: for inhibition at 5 µg/mL / inhibition at 50 µg/mL: Rhynchosporium secalis
Procedure, shortened: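 Compound in DMSO mixed into PDA plate medium at 50 mg/L and 5 mg/L; 4 mm mycelial plug of the fungus inoculated. Colony diameter compared with untreated plates gives % mycelial growth inhibition R=100(dc−dt)/dc, scored on a 5-grade scale.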

[2] = read-out: growth inhibition grade F.g
[3] = read-out: growth inhibition grade P.o
[4] = plate medium containing compound at 5 mg/L
[5] = plate medium containing compound at 50 mg/L
[6] = read-out: Growth inhibition grade, F.g
[7] = read-out: Growth inhibition grade, P.o

CC1(C)CCC(Cc2ccc(Cl)cc2)C1(O)Cn1ncnc1S (racemic) [compound (2)]
Growth inhibition grade, P.n (Phaeosphaeria nodorum; plate medium, 5 mg/L): 3 (% Mycelial growth inhibition of less than 60 to 40% or higher)
Growth inhibition grade, P.n (Phaeosphaeria nodorum; plate medium, 50 mg/L): 4 (% Mycerial growth inhibition of less than 80 to 60% or higher)
Growth inhibition grade, P.h ([1]; plate medium, 5 mg/L): 2 (% Mycerial growth inhibition of less than 40 to 20% or higher)
Growth inhibition grade, P.h ([1]; plate medium, 50 mg/L): 4 (% Mycerial growth inhibition of less than 80 to 60% or higher)
Growth inhibition grade, F.g (Fusarium graminearum; plate medium, 5 mg/L): 3 (% Mycelial growth inhibition of less than 60 to 40% or higher)
Growth inhibition grade, F.g (Fusarium graminearum; plate medium, 50 mg/L): 5 (% Mycerial growth inhibition of 80% or higher)
Growth inhibition grade, P.o (Pyricularia oryzae; plate medium, 5 mg/L): 4 (% Mycerial growth inhibition of less than 80 to 60% or higher)
Growth inhibition grade, P.o (Pyricularia oryzae; plate medium, 50 mg/L): 4 (% Mycerial growth inhibition of less than 80 to 60% or higher)
Growth inhibition grade, G.f (Giberella fujikuroi; plate medium, 5 mg/L): 3 (% Mycelial growth inhibition of less than 60 to 40% or higher)
Growth inhibition grade, G.f (Giberella fujikuroi; plate medium, 50 mg/L): 4 (% Mycerial growth inhibition of less than 80 to 60% or higher)
Growth inhibition grade, F.c (Fusarium oxysporum; plate medium, 5 mg/L): 3 (% Mycelial growth inhibition of less than 60 to 40% or higher)
Growth inhibition grade, F.c (Fusarium oxysporum; plate medium, 50 mg/L): 4 (% Mycerial growth inhibition of less than 80 to 60% or higher)
Growth inhibition grade, R.sec (Rhynchosporium secalis; plate medium, 5 mg/L): 5 (% Mycerial growth inhibition of 80% or higher)
Growth inhibition grade, R.sec (Rhynchosporium secalis; plate medium, 50 mg/L): 5 (% Mycerial growth inhibition of 80% or higher)

C[C@]1(CCl)CC[C@@H](Cc2ccc(Cl)cc2)[C@]1(O)Cn1ccnc1 (racemic) [Compound I-244, (1RS,2SR,5SR)-5-(4-chlorobenzyl)-2-chloromethyl-2-methyl-1-imidazol-1-ylmethylcyclopentanol]
inhibition at 5 µg/mL (Phaeosphaeria nodorum; plate medium, 5 mg/L, read-out: growth inhibition grade P.n): > 80%
inhibition at 50 µg/mL (Phaeosphaeria nodorum; plate medium, 50 mg/L, read-out: growth inhibition grade P.n): > 80%
inhibition at 5 µg/mL ([1]; plate medium, 5 mg/L, read-out: growth inhibition grade P.h): > 80%
inhibition at 50 µg/mL ([1]; plate medium, 50 mg/L, read-out: growth inhibition grade P.h): > 80%
inhibition at 5 µg/mL (Fusarium graminearum; [2]): > 80%
inhibition at 50 µg/mL (Fusarium graminearum; [2]): > 80%
inhibition at 5 µg/mL (Pyricularia oryzae; [3]): > 80%
inhibition at 50 µg/mL (Pyricularia oryzae; [3]): > 80%
inhibition at 5 µg/mL (Giberella fujikuroi; plate medium, 5 mg/L, read-out: growth inhibition grade G.f): > 80%
inhibition at 50 µg/mL (Giberella fujikuroi; plate medium, 50 mg/L, read-out: growth inhibition grade G.f): > 80%
inhibition at 5 µg/mL (Fusarium oxysporum; plate medium, 5 mg/L, read-out: growth inhibition grade F.c): > 80%
inhibition at 50 µg/mL (Fusarium oxysporum; plate medium, 50 mg/L, read-out: growth inhibition grade F.c): > 80%
inhibition at 5 µg/mL (Rhynchosporium secalis; plate medium, 5 mg/L, read-out: growth inhibition grade R.sec): > 80%
inhibition at 50 µg/mL (Rhynchosporium secalis; plate medium, 50 mg/L, read-out: growth inhibition grade R.sec): > 80%

C[C@]1(CCl)CC[C@@H](Cc2ccc(OC(F)(F)F)cc2)[C@]1(O)Cn1cncn1 (relative stereo) [Compound I-79]
Growth inhibition grade, P.n (Phaeosphaeria nodorum; [4]): 5 (% Mycerial growth inhibition of 80% or higher)
Growth inhibition grade, P.n (Phaeosphaeria nodorum; [5]): 5 (% Mycerial growth inhibition of 80% or higher)
Growth inhibition grade, P.h [1, 4]: 5 (% Mycerial growth inhibition of 80% or higher)
Growth inhibition grade, P.h [1, 5]: 5 (% Mycerial growth inhibition of 80% or higher)
Growth inhibition grade, F.g (Fusarium graminearum; [4]): 5 (% Mycerial growth inhibition of 80% or higher)
Growth inhibition grade, F.g (Fusarium graminearum; [5]): 5 (% Mycerial growth inhibition of 80% or higher)
Growth inhibition grade, P.o (Pyricularia oryzae; [4]): 5 (% Mycerial growth inhibition of 80% or higher)
Growth inhibition grade, P.o (Pyricularia oryzae; [5]): 5 (% Mycerial growth inhibition of 80% or higher)
Growth inhibition grade, G.f (Giberella fujikuroi; [4]): 5 (% Mycerial growth inhibition of 80% or higher)
Growth inhibition grade, G.f (Giberella fujikuroi; [5]): 5 (% Mycerial growth inhibition of 80% or higher)
Growth inhibition grade, F.c (Fusarium oxysporum; [4]): 5 (% Mycerial growth inhibition of 80% or higher)
Growth inhibition grade, F.c (Fusarium oxysporum; [5]): 5 (% Mycerial growth inhibition of 80% or higher)
Growth inhibition grade, R.sec (Rhynchosporium secalis; [4]): 5 (% Mycerial growth inhibition of 80% or higher)
Growth inhibition grade, R.sec (Rhynchosporium secalis; [5]): 5 (% Mycerial growth inhibition of 80% or higher)

CC(Cl)=C[C@@]1(C)CC[C@@H](Cc2ccc(Cl)cc2)[C@]1(O)Cn1cncn1 (racemic) [Compound I-15, (1RS,2RS,5SR)-5-(4-chlorobenzyl)-2-(2-chloropropenyl)-2-methyl-1-(1H-1,2,4-triazol-1-ylmethyl)cyclopentanol]
inhibition at 5 µg/mL (Phaeosphaeria nodorum; plate medium containing compound at 5 mg/L, read-out: Growth inhibition grade, P.n): > 80%
inhibition at 50 µg/mL (Phaeosphaeria nodorum; plate medium containing compound at 50 mg/L, read-out: Growth inhibition grade, P.n): > 80%
inhibition at 5 µg/mL ([1]; plate medium containing compound at 5 mg/L, read-out: Growth inhibition grade, P.h): > 80%
inhibition at 50 µg/mL ([1]; plate medium containing compound at 50 mg/L, read-out: Growth inhibition grade, P.h): > 80%
inhibition at 5 µg/mL (Fusarium graminearum; [6]): > 80%
inhibition at 50 µg/mL (Fusarium graminearum; [6]): > 80%
inhibition at 5 µg/mL (Pyricularia oryzae; [7]): > 80%
inhibition at 50 µg/mL (Pyricularia oryzae; [7]): > 80%
inhibition at 5 µg/mL (Giberella fujikuroi; plate medium containing compound at 5 mg/L, read-out: Growth inhibition grade, G.f): > 80%
inhibition at 50 µg/mL (Giberella fujikuroi; plate medium containing compound at 50 mg/L, read-out: Growth inhibition grade, G.f): > 80%
inhibition at 5 µg/mL (Fusarium oxysporum; plate medium containing compound at 5 mg/L, read-out: Growth inhibition grade, F.c): > 80%
inhibition at 50 µg/mL (Fusarium oxysporum; plate medium containing compound at 50 mg/L, read-out: Growth inhibition grade, F.c): > 80%
inhibition at 5 µg/mL (Rhynchosporium secalis; plate medium containing compound at 5 mg/L, read-out: Growth inhibition grade, R.sec): > 80%
inhibition at 50 µg/mL (Rhynchosporium secalis; plate medium containing compound at 50 mg/L, read-out: Growth inhibition grade, R.sec): > 80%
